Read-outs that look alike come from different tables or passages of the source.
Columns and labels:
[1] = target: T1, M. tuberculosis DNA gyrase (Mycobacterium tuberculosis, UniProt P9WG47); test: biochemical; conditions: M. tuberculosis DNA gyrase supercoiling, 100 nM compound
T1 construct: purchased Inspiralis (Norwich, UK)

M. tuberculosis H37Rv [2] = test: microbe, parasite or virus in culture; assay type: cell-based; conditions: Mycobacterium tuberculosis; for IC50: read-out: Antituberculosis activity M. tuberculosis H37Rv IC50; for IC90: read-out: Antituberculosis activity M. tuberculosis H37Rv IC90
[3] = target: T1, M. tuberculosis DNA gyrase; test: biochemical; assay type: biochemical
hERG = hERG (Homo sapiens, UniProt Q12809)
Sequence of hERG (Q12809 whole entry): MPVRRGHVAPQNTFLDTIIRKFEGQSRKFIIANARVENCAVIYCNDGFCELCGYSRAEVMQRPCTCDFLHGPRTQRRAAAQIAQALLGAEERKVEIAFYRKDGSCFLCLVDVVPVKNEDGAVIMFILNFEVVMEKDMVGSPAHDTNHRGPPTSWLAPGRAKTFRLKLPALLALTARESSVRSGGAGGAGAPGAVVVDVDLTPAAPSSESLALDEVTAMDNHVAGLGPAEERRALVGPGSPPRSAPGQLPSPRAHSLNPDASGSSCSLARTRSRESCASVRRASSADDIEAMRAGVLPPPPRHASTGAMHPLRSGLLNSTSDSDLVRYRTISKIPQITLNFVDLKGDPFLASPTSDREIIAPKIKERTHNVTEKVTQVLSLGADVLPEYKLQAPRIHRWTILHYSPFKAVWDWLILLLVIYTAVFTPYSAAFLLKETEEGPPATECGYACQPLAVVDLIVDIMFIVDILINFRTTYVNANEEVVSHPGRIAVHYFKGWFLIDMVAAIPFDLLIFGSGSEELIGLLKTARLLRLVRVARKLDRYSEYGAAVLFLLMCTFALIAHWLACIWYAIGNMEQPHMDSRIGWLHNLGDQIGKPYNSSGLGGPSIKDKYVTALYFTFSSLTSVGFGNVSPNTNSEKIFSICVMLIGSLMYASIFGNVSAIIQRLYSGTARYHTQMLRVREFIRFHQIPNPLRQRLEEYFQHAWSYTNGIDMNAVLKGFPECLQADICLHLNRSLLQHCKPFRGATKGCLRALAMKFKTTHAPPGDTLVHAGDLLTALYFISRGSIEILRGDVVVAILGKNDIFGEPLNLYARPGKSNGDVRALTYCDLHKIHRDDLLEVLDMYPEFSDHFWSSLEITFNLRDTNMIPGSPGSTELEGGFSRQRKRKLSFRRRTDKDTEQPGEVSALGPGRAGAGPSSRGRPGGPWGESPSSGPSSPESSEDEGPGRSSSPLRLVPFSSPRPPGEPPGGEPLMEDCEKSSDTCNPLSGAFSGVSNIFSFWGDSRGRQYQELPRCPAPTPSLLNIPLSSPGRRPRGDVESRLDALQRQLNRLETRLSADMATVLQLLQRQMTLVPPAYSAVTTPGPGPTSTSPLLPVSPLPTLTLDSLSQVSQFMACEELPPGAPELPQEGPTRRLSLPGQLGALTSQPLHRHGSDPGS

M. tuberculosis H37Rv [4] = conditions: calculated from the published MIC value ref 26; cited from earlier work
[5] = Assay 1 (single determination), read-out: M. tuberculosis gyrase supercoiling IC50, Assay 1
[6] = Assay 2 (single determination), read-out: M. tuberculosis gyrase supercoiling IC50, Assay 2
[7] = supercoiling assay, mean of two independent measurements ± SD, read-out: Enzyme inhibition M. tuberculosis DNA gyrase IC50
[8] = reference wild-type strain, 90% inhibition of bacteria growth, mean of two independent measurements ± SD
[9] = M. tuberculosis gyrase supercoiling IC50, Assay 1, Assay 1 (single determination)
[10] = M. tuberculosis gyrase supercoiling IC50, Assay 2, Assay 2 (single determination)

T1 sequence (P9WG45 whole entry): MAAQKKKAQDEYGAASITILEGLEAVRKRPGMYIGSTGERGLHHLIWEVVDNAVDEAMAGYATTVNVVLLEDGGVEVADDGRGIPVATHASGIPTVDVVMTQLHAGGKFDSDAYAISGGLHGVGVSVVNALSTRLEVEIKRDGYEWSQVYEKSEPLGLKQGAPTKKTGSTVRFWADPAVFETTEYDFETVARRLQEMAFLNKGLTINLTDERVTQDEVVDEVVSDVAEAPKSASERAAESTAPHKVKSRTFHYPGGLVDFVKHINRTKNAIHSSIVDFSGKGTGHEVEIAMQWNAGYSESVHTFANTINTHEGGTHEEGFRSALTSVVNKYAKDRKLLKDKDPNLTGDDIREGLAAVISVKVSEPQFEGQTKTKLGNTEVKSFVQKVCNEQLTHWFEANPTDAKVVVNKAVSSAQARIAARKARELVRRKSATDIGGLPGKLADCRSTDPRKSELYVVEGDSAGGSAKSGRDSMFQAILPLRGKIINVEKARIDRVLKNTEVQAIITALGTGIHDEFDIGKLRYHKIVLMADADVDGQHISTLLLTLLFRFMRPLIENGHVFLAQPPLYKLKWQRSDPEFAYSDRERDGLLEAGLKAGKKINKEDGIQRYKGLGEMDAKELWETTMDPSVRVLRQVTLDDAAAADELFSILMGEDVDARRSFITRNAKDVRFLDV
T1 sequence (P9WG47 whole entry): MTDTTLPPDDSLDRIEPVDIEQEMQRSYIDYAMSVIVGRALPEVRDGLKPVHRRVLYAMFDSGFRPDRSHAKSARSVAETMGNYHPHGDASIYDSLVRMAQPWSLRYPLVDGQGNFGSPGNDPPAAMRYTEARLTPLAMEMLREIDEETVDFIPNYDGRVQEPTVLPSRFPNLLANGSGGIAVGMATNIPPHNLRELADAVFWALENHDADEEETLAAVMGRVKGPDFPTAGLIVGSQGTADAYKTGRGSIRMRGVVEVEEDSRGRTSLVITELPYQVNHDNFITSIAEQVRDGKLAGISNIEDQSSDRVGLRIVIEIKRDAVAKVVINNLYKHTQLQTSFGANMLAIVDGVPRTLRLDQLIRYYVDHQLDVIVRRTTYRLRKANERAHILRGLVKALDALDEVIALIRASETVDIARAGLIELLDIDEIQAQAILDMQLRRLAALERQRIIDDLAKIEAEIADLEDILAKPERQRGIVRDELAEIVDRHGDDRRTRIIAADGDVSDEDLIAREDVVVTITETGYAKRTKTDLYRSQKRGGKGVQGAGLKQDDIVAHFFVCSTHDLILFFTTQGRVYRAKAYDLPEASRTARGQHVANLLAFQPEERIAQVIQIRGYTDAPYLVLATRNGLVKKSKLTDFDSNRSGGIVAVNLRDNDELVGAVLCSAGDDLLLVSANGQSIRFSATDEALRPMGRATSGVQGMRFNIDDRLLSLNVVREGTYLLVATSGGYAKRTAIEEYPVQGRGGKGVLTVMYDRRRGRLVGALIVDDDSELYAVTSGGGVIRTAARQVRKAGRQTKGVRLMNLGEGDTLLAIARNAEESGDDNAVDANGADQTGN

COc1ccc2nccc(CCN3CCC(NCc4ccc(Cl)nc4)CC3)c2n1 [Compound 22]
inhibition at 0.1 µM [1]: 27.3%

COc1ccc2nccc(CCN3CCC(NCc4ccc(Cl)c(F)c4)CC3)c2n1 [Compound 18]
inhibition at 0.1 µM [1]: 52.2%

COc1ccc2nccc(CCN3CCC(NCc4ccc(OC(F)F)c(O)c4)CC3)c2n1 [Compound 7]
inhibition at 0.1 µM [1]: 3.47%

COc1ccc2nccc(OCC3CCC(NCc4cc(F)c(Cl)c(F)c4)CC3)c2n1 (stereo not shown) [Compound 27]
inhibition at 0.1 µM [1]: 41.6%

COc1ccc2nccc(OCC3CCC(NCc4ccc(Br)cc4)CO3)c2n1 (stereo not shown) [Compound 31]
inhibition at 0.1 µM [1]: 0%

C[C@H]1COc2c(N3CCN(C)CC3)c(F)cc3c(=O)c(C(=O)O)cn1c23 [Levofloxacin, reference compound]
IC50 (M. tuberculosis H37Rv [2]): 590 nM
IC90 (M. tuberculosis H37Rv [2]): 980 nM

COc1ccc2nccc(OCC3CCC(NCc4ccc(Cl)cc4)CO3)c2n1 (stereo not shown) [Compound 30]
inhibition at 0.1 µM [1]: 0%

COc1ccc2nccc(OCC3CCC(NCc4ccc(Br)cc4)CC3)c2n1 (stereo not shown) [Compound 25]
inhibition at 0.1 µM [1]: 0%

COc1ccc2nccc(CCN3CCC(NCc4ccc(Br)c(F)c4F)CC3)c2n1 [Compound 19]
inhibition at 0.1 µM [1]: 29.9%

COc1ccc2nccc(CCN3CCC(NCc4ccc(OC(F)F)c(OC)c4)CC3)c2n1 [Compound 6]
inhibition at 0.1 µM [1]: 0%

COc1ccc2nccc(CCN3CCC(NCc4ccc(Br)cc4)CC3)c2n1 [Compound 16]
inhibition at 0.1 µM [1]: 64.1%

COc1ccc2nccc(OCC3CCC(NCc4ccc(I)cc4)CO3)c2n1 (stereo not shown) [Compound 32]
inhibition at 0.1 µM [1]: 0.6%

COc1ccc2nccc(CCN3CCC(NCc4ccc(Cl)cc4)CC3)c2n1 [Compound 15]
inhibition at 0.1 µM [1]: 44.8%

COc1ccc(CNC2CCN(CCc3ccnc4ccc(OC)nc34)CC2)cn1 [Compound 12]
inhibition at 0.1 µM [1]: 0%

COc1ccc2nccc(CCN3CCC(NCc4ccccc4)CC3)c2n1 [Compound 13]
inhibition at 0.1 µM [1]: 0%

COc1ccc2nccc(C(O)CC3CCC(NCc4cc(F)c(Br)c(F)c4)CC3)c2n1 (stereo not shown) [Compound 5]
IC50 [3, 5]: 97 nM
IC50 [3, 6]: 96 nM
IC50 ([3]; average of Assay 1 and Assay 2, read-out: M. tuberculosis gyrase supercoiling IC50, Average): 96 nM
IC50 [3, 7]: 96 nM
inhibition at 0.1 µM [1]: 95%
IC90 (M. tuberculosis H37Rv [2]; [8]): 280 ± 65 nM

COc1ccc2nccc(CCN3CCC(NCc4cc(F)c(Cl)c(F)c4)CC3)c2n1 [Compound 3]
IC50 [3, 5]: 93 nM
IC50 [3, 6]: 91 nM
IC50 [3, 7]: 92 ± 1 nM
IC50 (hERG): 436 nM
inhibition at 0.1 µM [1]: 90.2%
IC50 (M. tuberculosis H37Rv [2]): 71 ± 3 nM
IC90 (M. tuberculosis H37Rv [2]; [8]): 92 ± 8 nM

COc1ccc2nccc(CCN3CCC(NCc4ccc(N(C)C)cc4)CC3)c2n1 [Compound 11]
inhibition at 0.1 µM [1]: 0%

C=CCn1cc(CNC2CCN(CCc3ccnc4ccc(OC)nc34)CC2)cn1 [Compound 10]
inhibition at 0.1 µM [1]: 5.13%

COc1ccc2nccc(CCN3CCC(NCc4cc(F)c(Br)c(F)c4)CC3)c2n1 [Compound 4]
IC50 [3, 5]: 89 nM
IC50 [3, 6]: 69 nM
IC50 [3, 7]: 79 ± 10 nM
inhibition at 0.1 µM [1]: 99.8%
IC90 (M. tuberculosis H37Rv [2]; [8]): 62 ± 4 nM

COc1ccc2nccc(OCC3CCC(NCc4ccc(I)c(F)c4)CC3)c2n1 (stereo not shown) [Compound 29]
inhibition at 0.1 µM [1]: 27.8%

COc1ccc2nccc(CCN3CCC(NCc4ccc(F)cc4)CC3)c2n1 [Compound 14]
inhibition at 0.1 µM [1]: 0%

COc1ccc2nccc(CCN3CCC(NCc4ccc(Cl)cn4)CC3)c2n1 [Compound 23]
inhibition at 0.1 µM [1]: 0%

COc1ccc2nccc(CCN3CCC(NCc4ccc(I)c(F)c4)CC3)c2n1 [Compound 2]
IC50 [3, 9]: 155 nM
IC50 [3, 10]: 56 nM
IC50 [3, 7]: 105 ± 50 nM
IC50 (hERG): 243 nM
inhibition at 0.1 µM [1]: 80.4%
IC50 (M. tuberculosis H37Rv [2]): 200 ± 25 nM
IC90 (M. tuberculosis H37Rv [2]; [8]): 270 ± 45 nM

COc1ccc2nccc(CCN3CCC(NCc4ccc(I)c(F)c4F)CC3)c2n1 [Compound 21]
inhibition at 0.1 µM [1]: 14.4%

COc1ccc2nccc(OCC3CCC(NCc4cc(F)c(Br)c(F)c4)CO3)c2n1 (stereo not shown) [Compound 33]
inhibition at 0.1 µM [1]: 19.3%

COc1ccc2nccc(OCC3CCC(NCc4cc(F)c(Cl)c(F)c4)CO3)c2n1 (stereo not shown) [Compound 34]
inhibition at 0.1 µM [1]: 4.3%

COc1ccc2nccc(OCC3CCC(NCc4ccc(Cl)cc4)CC3)c2n1 (stereo not shown) [Compound 24]
inhibition at 0.1 µM [1]: 4.7 ± 4.7%

COc1ccc2nccc(OCC3CCC(NCc4ccc(I)cc4)CC3)c2n1 (stereo not shown) [Compound 26]
inhibition at 0.1 µM [1]: 9.68%

COc1ccc2nccc(CCN3CCC(NCc4cnn(C(C)C)c4)CC3)c2n1 [Compound 9]
inhibition at 0.1 µM [1]: 7.45%

COc1ccc2nccc(C(O)CC3CCC(NCc4ccc(Br)cc4)CC3)c2n1 (stereo not shown) [Compound 36]
inhibition at 0.1 µM [1]: 24.9%

COc1ccc2nccc(OCC3CCC(NCc4cc(F)c(Br)c(F)c4)CC3)c2n1 (stereo not shown) [Compound 28]
inhibition at 0.1 µM [1]: 23.8%

O=c1ccc2ncc(=O)n3c2n1C[C@H]3CN1CCC(NCc2cc3c(cn2)OCCC3)CC1 [Gepotidacin, reference compound]
MIC (M. tuberculosis H37Rv [4]): g MIC = 0.86 μM value for Gepotidacin was calculated from the published MIC value.[26] “/” values were not found in the literature.
IC50 (hERG): > 30000 nM

COc1ccc2nccc(CCN3CCC(NCc4ccc(Br)c(F)c4)CC3)c2n1 [Compound 1]
IC50 [3, 9]: 397 nM
IC50 [3, 10]: 330 nM
IC50 [3, 7]: 363 ± 34 nM
IC50 (hERG): 455 nM
inhibition at 0.1 µM [1]: 84.1%
IC50 (M. tuberculosis H37Rv [2]): 180 ± 45 nM
IC90 (M. tuberculosis H37Rv [2]; [8]): 200 ± 50 nM

COc1ccc2nccc(CCN3CCC(NCc4ccc(I)cc4)CC3)c2n1 [Compound 17]
inhibition at 0.1 µM [1]: 63.7%

COc1ccc2nccc(CCN3CCC(NCc4ccc(C(F)(F)F)nc4)CC3)c2n1 [Compound 8]
inhibition at 0.1 µM [1]: 27.4%

COc1ccc2nccc(OCC3CCC(NCc4ccc(I)c(F)c4)CO3)c2n1 (stereo not shown) [Compound 35]
inhibition at 0.1 µM [1]: 20.3%

COc1ccc2nccc(CCN3CCC(NCc4cc(F)c(Br)cc4F)CC3)c2n1 [Compound 20]
inhibition at 0.1 µM [1]: 43.1%

Reference: PMC11647683, “Structural Aspects of Mycobacterium tuberculosis DNA Gyrase Targeted by Novel Bacterial Topoisomerase Inhibitors” (ACS Medicinal Chemistry Letters, 2024)
